In ChEMBL document CHEMBL3751826, “Sulfamide derivatives with selective carbonic anhydrase VII inhibitory action” (Bioorg Med Chem, 2016):

Assays:
Carbonic anhydrase 14 = Carbonic anhydrase 14 (Homo sapiens, UniProt Q9ULX7)
Description: Inhibition of recombinant human carbonic anhydrase 14 preincubated for 15 mins by stopped-flow CO2 hydration assay

Carbonic anhydrase 12 = Carbonic anhydrase 12 (Homo sapiens, UniProt O43570)
Description: Inhibition of recombinant human carbonic anhydrase 12 preincubated for 15 mins by stopped-flow CO2 hydration assay

Carbonic anhydrase 1 = Carbonic anhydrase 1 (Homo sapiens, UniProt P00915)
Description: Inhibition of recombinant human carbonic anhydrase 1 preincubated for 15 mins by stopped-flow CO2 hydration assay

Carbonic anhydrase 7 = Carbonic anhydrase 7 (Homo sapiens, UniProt P43166)
Description: Inhibition of recombinant human carbonic anhydrase 7 preincubated for 15 mins by stopped-flow CO2 hydration assay

Carbonic anhydrase 9 = Carbonic anhydrase 9 (Homo sapiens, UniProt Q16790)
Description: Inhibition of recombinant human carbonic anhydrase 9 preincubated for 15 mins by stopped-flow CO2 hydration assay

Carbonic anhydrase 2 = Carbonic anhydrase 2 (Homo sapiens, UniProt P00918)
Description: Inhibition of recombinant human carbonic anhydrase 2 preincubated for 15 mins by stopped-flow CO2 hydration assay

Carbonic anhydrase 14, sequence (Q9ULX7 whole entry): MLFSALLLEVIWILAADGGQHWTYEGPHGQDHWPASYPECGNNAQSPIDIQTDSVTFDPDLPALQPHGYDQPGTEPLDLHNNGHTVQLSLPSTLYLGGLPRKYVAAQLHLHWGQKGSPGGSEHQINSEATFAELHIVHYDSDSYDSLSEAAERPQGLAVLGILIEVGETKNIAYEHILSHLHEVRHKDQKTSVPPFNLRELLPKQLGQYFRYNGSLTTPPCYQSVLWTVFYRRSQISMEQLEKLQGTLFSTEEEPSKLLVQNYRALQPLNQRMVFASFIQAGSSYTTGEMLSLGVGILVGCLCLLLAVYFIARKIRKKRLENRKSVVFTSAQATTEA
Carbonic anhydrase 1, sequence (P00915 whole entry): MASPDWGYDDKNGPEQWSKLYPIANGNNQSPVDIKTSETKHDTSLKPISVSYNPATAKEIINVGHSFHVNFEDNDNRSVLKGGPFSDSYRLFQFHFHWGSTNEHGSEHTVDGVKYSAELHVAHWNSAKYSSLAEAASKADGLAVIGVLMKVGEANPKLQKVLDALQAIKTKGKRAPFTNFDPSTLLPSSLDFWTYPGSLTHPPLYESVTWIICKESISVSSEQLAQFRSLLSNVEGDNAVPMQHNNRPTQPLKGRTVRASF
Carbonic anhydrase 12, sequence (O43570 whole entry): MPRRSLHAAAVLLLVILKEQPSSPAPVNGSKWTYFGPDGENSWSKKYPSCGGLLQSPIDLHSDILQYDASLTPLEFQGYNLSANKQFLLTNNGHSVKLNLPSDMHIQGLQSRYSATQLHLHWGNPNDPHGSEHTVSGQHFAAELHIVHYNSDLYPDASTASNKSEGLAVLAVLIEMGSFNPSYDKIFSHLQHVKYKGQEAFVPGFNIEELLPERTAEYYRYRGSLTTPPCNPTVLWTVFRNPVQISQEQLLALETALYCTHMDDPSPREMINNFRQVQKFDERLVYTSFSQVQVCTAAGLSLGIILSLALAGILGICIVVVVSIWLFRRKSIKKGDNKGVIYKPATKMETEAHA
Carbonic anhydrase 7, sequence (P43166 whole entry): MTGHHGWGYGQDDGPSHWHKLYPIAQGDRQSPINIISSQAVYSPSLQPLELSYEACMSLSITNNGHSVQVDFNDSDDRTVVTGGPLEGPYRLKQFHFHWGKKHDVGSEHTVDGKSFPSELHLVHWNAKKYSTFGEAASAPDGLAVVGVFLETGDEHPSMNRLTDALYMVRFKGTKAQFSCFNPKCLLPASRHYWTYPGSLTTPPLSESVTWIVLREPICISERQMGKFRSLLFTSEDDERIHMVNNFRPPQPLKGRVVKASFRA

| Structure (SMILES) | Ki (Carbonic anhydrase 14) | Ki (Carbonic anhydrase 12) | Ki (Carbonic anhydrase 1) | Ki (Carbonic anhydrase 7) | Ki (Carbonic anhydrase 9) | Ki (Carbonic anhydrase 2) |
| --- | --- | --- | --- | --- | --- | --- |
| COC(=O)[C@H](Cc1ccccc1)NS(=O)(=O)NCc1ccc(F)cc1 | 6.5 nM | 0.66 nM | > 10000 nM | 0.28 nM | 28.1 nM | > 10000 nM |
| COC(=O)CCNS(=O)(=O)NCCc1ccccc1 | 7.3 nM | 64.2 nM | > 10000 nM | 2.2 nM | 26.5 nM | > 10000 nM |
| COC(=O)CCNS(=O)(=O)NCC(C)C | 6.3 nM | 4.7 nM | > 10000 nM | 0.27 nM | 31.8 nM | > 10000 nM |
| COC(=O)CCNS(=O)(=O)NC(C)c1ccccc1 (stereo unspecified) | 7.5 nM | 5.2 nM | > 10000 nM | 0.31 nM | 117 nM | > 10000 nM |
| COC(=O)[C@@H](NS(=O)(=O)NCC(C)C)C(C)C | 7.8 nM | 33.7 nM | > 10000 nM | 0.39 nM | 191 nM | > 10000 nM |
| COC(=O)CCNS(=O)(=O)NC12CC3CC(CC(C3)C1)C2 | 8 nM | 60.7 nM | > 10000 nM | 0.43 nM | 30.5 nM | 4960 nM |
| O=S(=O)([O-])NC1CCCCC1.[Na+] [SODIUM CYCLAMATE] | 6.6 nM | 3.8 nM | > 10000 nM | 0.24 nM | 81.3 nM | > 10000 nM |

Now from value to compound:

| Ki (Carbonic anhydrase 14) | Ki (Carbonic anhydrase 12) | Ki (Carbonic anhydrase 1) | Ki (Carbonic anhydrase 7) | Ki (Carbonic anhydrase 9) | Ki (Carbonic anhydrase 2) | Structure (SMILES) |
| --- | --- | --- | --- | --- | --- | --- |
| 7.7 nM | 6.8 nM | > 10000 nM | 0.37 nM | 225 nM | 8530 nM | COC(=O)[C@H](Cc1ccccc1)NS(=O)(=O)NCC(C)C |
| 7.4 nM | 0.74 nM | > 10000 nM | 0.24 nM | 25.7 nM | > 10000 nM | COC(=O)[C@@H](NS(=O)(=O)NCc1ccc(F)cc1)C(C)C |
| 22.7 nM | 74.4 nM | > 10000 nM | 0.45 nM | 29.3 nM | 8880 nM | COC(=O)CCNS(=O)(=O)NCc1ccc(F)cc1 |
| 6.1 nM | 5 nM | > 10000 nM | 0.3 nM | 96.7 nM | 7680 nM | CCCCCCNS(=O)(=O)NCCC(=O)OC |
